The text below walks through data of patent publication US12544374B2, “AZA-quinoline compounds and uses thereof” (Novartis AG, priority 2019, dated 2026).

Like-named read-outs stand apart in the source and are kept apart here.

Usually IC50 stands for the midpoint of a concentration-inhibition curve.

The target in experiment [1] is wild type PRC2 (wtPRC2) complex (Homo sapiens (Human), UniProt Q15910). The experiment can be described thus: EZH2 LC-MS assay (LC-Qualified). Type of experiment: biochemical. The following applies: (a) LC-Qualified assay. Here is the method: Representative compounds of the invention were serially and separately diluted 3-fold in DMSO to obtain twelve concentrations. […] Solutions (6 μL) of 80 nM wild type PRC2 (wtPRC2) complex and 60 μM SAM in reaction buffer (20 mM Tris, pH 8.0, 0.1% BSA, 0.01% Triton, 0.5 mM DTT) were added to the wells that were then incubated with the test compound for 20 min. A 6 μL solution of 3 μM of the substrate peptide H3K27me1 (histone H3[21-44]-K27me1-biotin) and 6 μM regulatory peptide H3K27me3 (histone H3[21-44]-K27me3) in reaction buffer was added to initiate each reaction. […] The data were fit to a dose response equation using the program Helios to get the IC50 values of the test compound.
wild type PRC2 (wtPRC2) complex, sequence (Q15910 whole entry): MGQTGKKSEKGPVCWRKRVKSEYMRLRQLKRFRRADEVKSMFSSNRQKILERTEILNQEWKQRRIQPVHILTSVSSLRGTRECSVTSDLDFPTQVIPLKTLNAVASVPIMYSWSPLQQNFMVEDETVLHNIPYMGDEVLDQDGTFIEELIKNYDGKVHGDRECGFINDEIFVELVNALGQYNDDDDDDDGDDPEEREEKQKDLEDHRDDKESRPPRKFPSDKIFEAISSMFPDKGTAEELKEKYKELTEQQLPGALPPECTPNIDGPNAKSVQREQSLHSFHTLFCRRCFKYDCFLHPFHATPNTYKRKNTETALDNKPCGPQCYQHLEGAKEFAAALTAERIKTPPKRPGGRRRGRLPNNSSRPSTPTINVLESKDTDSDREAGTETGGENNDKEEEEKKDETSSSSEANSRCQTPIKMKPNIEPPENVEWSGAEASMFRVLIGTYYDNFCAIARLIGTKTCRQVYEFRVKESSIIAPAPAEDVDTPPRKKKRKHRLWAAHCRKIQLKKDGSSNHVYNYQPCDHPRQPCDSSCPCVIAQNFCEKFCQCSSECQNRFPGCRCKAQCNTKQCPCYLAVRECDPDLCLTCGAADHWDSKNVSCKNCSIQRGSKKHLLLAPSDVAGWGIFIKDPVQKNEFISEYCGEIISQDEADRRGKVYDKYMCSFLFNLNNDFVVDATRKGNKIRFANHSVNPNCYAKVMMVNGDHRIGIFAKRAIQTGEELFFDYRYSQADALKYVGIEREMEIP
wild type PRC2 (wtPRC2) complex, sequence (Q15022 whole entry partner): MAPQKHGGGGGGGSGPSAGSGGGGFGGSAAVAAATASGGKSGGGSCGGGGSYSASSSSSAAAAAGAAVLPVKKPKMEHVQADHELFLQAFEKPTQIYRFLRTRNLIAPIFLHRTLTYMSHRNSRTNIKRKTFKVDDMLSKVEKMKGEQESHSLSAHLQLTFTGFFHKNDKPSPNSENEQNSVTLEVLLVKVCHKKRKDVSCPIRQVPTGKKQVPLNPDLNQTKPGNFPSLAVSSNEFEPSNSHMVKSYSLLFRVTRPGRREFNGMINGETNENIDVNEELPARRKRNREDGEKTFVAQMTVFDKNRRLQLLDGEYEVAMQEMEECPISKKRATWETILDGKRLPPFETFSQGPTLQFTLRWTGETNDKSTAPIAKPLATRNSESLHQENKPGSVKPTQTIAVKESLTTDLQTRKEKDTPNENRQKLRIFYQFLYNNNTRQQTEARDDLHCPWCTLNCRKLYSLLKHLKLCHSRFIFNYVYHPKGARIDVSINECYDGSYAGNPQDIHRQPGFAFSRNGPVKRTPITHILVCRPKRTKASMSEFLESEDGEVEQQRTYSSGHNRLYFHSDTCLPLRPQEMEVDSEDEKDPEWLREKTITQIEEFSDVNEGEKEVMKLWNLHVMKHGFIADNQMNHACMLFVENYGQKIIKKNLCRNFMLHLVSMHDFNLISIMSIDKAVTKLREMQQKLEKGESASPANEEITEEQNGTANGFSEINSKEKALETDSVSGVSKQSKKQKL
wild type PRC2 (wtPRC2) complex, sequence (O75530 whole entry partner): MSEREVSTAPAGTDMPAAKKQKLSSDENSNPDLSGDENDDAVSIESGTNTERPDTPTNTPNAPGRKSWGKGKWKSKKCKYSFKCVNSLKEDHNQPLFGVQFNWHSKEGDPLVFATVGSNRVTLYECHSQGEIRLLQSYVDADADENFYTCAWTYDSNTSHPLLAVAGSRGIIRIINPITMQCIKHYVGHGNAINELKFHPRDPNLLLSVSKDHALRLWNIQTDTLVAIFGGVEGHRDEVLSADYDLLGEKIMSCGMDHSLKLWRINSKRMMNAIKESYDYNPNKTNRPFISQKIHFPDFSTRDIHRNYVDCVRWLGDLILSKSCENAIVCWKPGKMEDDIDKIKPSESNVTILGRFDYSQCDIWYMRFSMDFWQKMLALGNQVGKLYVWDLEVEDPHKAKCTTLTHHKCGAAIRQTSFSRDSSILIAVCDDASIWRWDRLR
wild type PRC2 (wtPRC2) complex, sequence (Q09028 whole entry partner): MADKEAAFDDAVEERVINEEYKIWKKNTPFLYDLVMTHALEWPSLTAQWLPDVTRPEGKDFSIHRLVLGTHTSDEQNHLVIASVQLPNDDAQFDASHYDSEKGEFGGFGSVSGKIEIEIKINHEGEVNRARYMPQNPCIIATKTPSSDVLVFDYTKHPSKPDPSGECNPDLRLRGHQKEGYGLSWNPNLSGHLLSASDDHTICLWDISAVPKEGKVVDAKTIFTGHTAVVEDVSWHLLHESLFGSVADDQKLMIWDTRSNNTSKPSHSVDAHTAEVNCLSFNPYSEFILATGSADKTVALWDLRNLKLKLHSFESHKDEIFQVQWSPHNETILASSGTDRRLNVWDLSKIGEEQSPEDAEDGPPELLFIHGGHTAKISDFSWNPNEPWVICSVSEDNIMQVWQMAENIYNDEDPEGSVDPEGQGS
wild type PRC2 (wtPRC2) complex, sequence (Q6ZN18 whole entry partner): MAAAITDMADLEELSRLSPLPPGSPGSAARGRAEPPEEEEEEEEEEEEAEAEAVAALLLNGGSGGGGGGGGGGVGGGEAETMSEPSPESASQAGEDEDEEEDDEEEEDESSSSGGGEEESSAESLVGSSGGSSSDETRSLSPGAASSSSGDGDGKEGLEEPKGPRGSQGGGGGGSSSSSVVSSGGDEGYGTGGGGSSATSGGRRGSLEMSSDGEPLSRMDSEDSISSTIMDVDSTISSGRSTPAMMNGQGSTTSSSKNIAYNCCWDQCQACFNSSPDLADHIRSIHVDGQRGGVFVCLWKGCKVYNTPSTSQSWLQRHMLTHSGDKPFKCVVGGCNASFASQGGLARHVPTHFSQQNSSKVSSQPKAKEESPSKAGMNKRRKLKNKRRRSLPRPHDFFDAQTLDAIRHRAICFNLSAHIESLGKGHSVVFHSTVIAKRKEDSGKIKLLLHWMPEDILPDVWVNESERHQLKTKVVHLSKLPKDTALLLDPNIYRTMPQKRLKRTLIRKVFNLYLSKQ

For experiment [2], the target named is EZH2 (Homo sapiens (Human), UniProt Q15910). The experiment can be described thus: ELISA (H3K27 methylation) assay in G401 cell. As to conditions: (b) ELISA Qualified assay, 48 h. The class given is cell-based. Here is the method: Representative compounds of the invention were serially and separately diluted 3-fold in DO to obtain a total of eight or twelve concentrations. Then the compounds were added to G401 cell cultured in 384-well plate at 1:500 dilution to obtain the highest concentration of 20 μM. The cells were further cultured for 48 h before ELISA procedure.
EZH2, sequence (Q15910 whole entry): as the sequence (Q15910 whole entry) above
EZH2, sequence (Q15022 whole entry partner): as the sequence (Q15022 whole entry partner) above
EZH2, sequence (O75530 whole entry partner): as the sequence (O75530 whole entry partner) above
EZH2, sequence (Q09028 whole entry partner): as the sequence (Q09028 whole entry partner) above
ELISA protocol: Cell lysates were transferred to the wells of a 384-well plate and the final volume was adjusted to 50 μL per well with PBS. The plate was sealed, centrifuged at 2,000 rpm for 2 min and incubated at 4° C. for about 16 h. The plate was washed with TBST buffer (1×TBS (10×TBS: 24.2 g Tris (Sigma, T6066), 80 g NaCl (Sigma, S3014) to 1 L of water and adjust pH to 7.6 with HCl) with 0.1% Tween-20). Blocking buffer (TBST, 5% BSA; 50 μL per well) was added and the plate was incubated for 1 h at rt. The blocking buffer was removed and primary antibody was added (30 μL per well). […] The primary antibody was incubated in the plate at rt for 1 h. The wells were washed with TBST and incubated with secondary antibody for 1 h at rt.
After 1 h of incubation at rt, the wells were washed with TBST. […] The signal was read using a PerkinElmer Envision Reader. The H3K27 methylation readouts were normalized using H3 signal and then percentage inhibition was calculated against the samples treated with DO. The data were fit to a dose response curve using the program Helios to get the IC50 values of the test compound.
(In general: ELISA stands for enzyme-linked immunosorbent assay.)

Experiment [3] has as its system B cell lymphoma cell KARPAS422. The experiment can be described thus: Analysis of cell proliferation, KARPAS422. The class given is cell-based, human. The following applies: KARPAS422 after 14 days of treatment, read-out: antiproliferative activities IC50. On the procedure:
B cell lymphoma cell KARPAS422 was cultured using standard cell culture conditions in RPMI-1640 (Invitrogen, cat #11875) supplemented with 15% FBS (Invitrogen, cat #10099-141) in humidified incubator at 37° C., 5% CO2. To assess the effect of PRC2 inhibition on cell proliferation, exponentially growing cells were seeded at a density of 1×10^5 cells/mL in 12-well plate (Corning, cat #CLS3513). After cell seeding, a compound of the invention was added to the cell media (in concentrations ranging from 0 to 100 μM, 3× dilution series). Viable cell numbers were determined every 3-4 days for up to 14 days using Vi-CELL (Beckman Coulter). On days of cell counting, fresh growth media and compound were replenished and cells split back to a density of 1×10^5 cells/mL. Total cell number is expressed as split-adjusted viable cells per mL. The dose response curves and IC50 values were generated using Prism.

Setting [4] is: Homo sapiens, KARPAS-422, 336 h.

Turning to `CN(C(=O)Cc1cnc(NC[C@H]2CC[C@H](Nc3ccc4ccnc(Cl)c4n3)CC2)nc1)C1COC1` [Compound C37, 2-(2-((((1,4-trans)-4-((8-chloro-1,7-naphthyridin-2-yl)amino)cyclohexyl)methyl)amino)pyrimidin-5-yl)-N-methyl-N-(oxetan-3-yl)acetamide], the 50% inhibitory concentration (IC50) in experiment [1] was found to be 0.015 µM; in experiment [2] it was 0.002 µM; in experiment [3] (setting [4]) it was 0.7 nM.

With `COc1nccc2ccc(N[C@H]3CC[C@H](CNc4ncc(NC(C)=O)cn4)CC3)nc12` [Compound C6, N-(2-((((1,4-trans)-4-((8-methoxy-1,7-naphthyridin-2-yl)amino)cyclohexyl)methyl)amino)pyrimidin-5-yl)acetamide], the values for the IC50 in experiment [1], in experiment [2] and in experiment [3] (setting [4]) were 0.101 µM, 0.066 µM and 69 nM, respectively.

As to `O=C(NC1COC1)C(F)(F)c1cnc(NC[C@H]2CC[C@H](Nc3ccc4ccnc(Cl)c4n3)CC2)nc1` [Compound C77, 2-(2-((((1,4-trans)-4-((8-chloro-1,7-naphthyridin-2-yl)amino)cyclohexyl)methyl)amino)pyrimidin-5-yl)-2,2-difluoro-N-(oxetan-3-yl)acetamide], the IC50 in experiment [1] is 0.012 µM; in experiment [2] it was 0.025 µM; in experiment [3] (setting [4]), 2 nM.

On to `C[C@H](C(=O)NC1COC1)c1cnc(NC[C@H]2CC[C@H](Nc3ccc4ccnc(Cl)c4n3)CC2)nc1` (relative stereo) [Compound C53, (S)-2-(2-((((1,4-trans)-4-((8-chloro-1,7-naphthyridin-2-yl)amino)cyclohexyl)methyl)amino)pyrimidin-5-yl)-N-(oxetan-3-yl)propanamide], for which, in experiment [3], the IC50 was determined as 0.3 nM.

Consider `COc1nccc2ccc(N[C@H]3CC[C@H](CNc4ncc(N)cn4)CC3)nc12` [Compound C1, N^2-(((1,4-trans)-4-((8-methoxy-1,7-naphthyridin-2-yl)amino)cyclohexyl)methyl)pyrimidine-2,5-diamine], for which the half-inhibitory concentration (IC50) was 0.121 µM in experiment [1], 0.042 µM in experiment [2] and 20 nM in experiment [3] (setting [4]).

Turning to `O=C(NC1COC1)[C@H](O)c1cnc(NC[C@H]2CC[C@H](Nc3ccc4ccnc(Cl)c4n3)CC2)nc1` [Compound C76, (R)-2-(2-((((1,4-trans)-4-((8-chloro-1,7-naphthyridin-2-yl)amino)cyclohexyl)methyl)amino)pyrimidin-5-yl)-2-hydroxy-N-(oxetan-3-yl)acetamide], in experiment [3] (setting [4]), the half-maximal inhibitory concentration (IC50) turned out to be 1 nM.

Consider `OCC1COC(c2cnc(NC[C@H]3CC[C@H](Nc4ccc5ccnc(Cl)c5n4)CC3)nc2)OC1` (mixture of isomers) [Compound C34, (2-(2-((((1,4-trans)-4-((8-chloro-1,7-naphthyridin-2-yl)amino)cyclohexyl)methyl)amino)pyrimidin-5-yl)-1,3-dioxan-5-yl)methanol], for which the IC50 in experiment [1] stood at 0.028 µM; in experiment [2], 0.038 µM; in experiment [3] (setting [4]) it was 18 nM.

For the compound `CNc1nccc2ccc(N[C@H]3CC[C@H](CNc4ncc(C(N)=O)cn4)CC3)nc12` [Compound C61, 2-((((1,4-trans)-4-((8-(methylamino)-1,7-naphthyridin-2-yl)amino)cyclohexyl)methyl)amino)pyrimidine-5-carboxamide], the figures for the half-inhibitory concentration (IC50) in experiment [1], in experiment [2] and in experiment [3] (setting [4]) were 0.049 µM, 0.032 µM and 41 nM, respectively.

As for `COC(=O)Nc1cnc(NC[C@H]2CC[C@H](Nc3ccc4ccnc(Cl)c4n3)CC2)nc1` [Compound C15, Methyl (2-((((1,4-trans)-4-((8-chloro-1,7-naphthyridin-2-yl)amino)cyclohexyl)methyl)amino)pyrimidin-5-yl)carbamate], the IC50 is 0.017 µM in experiment [1], 0.028 µM in experiment [2] and 31 nM in experiment [3] (setting [4]).

Consider `O=C(Cc1ccc(NC[C@H]2CC[C@H](Nc3ccc4ccnc(Cl)c4n3)CC2)nc1)NC1COC1` [Compound C42, 2-(6-((((1,4-trans)-4-((8-chloro-1,7-naphthyridin-2-yl)amino)cyclohexyl)methyl)amino)pyridin-3-yl)-N-(oxetan-3-yl)acetamide], for which the results for the IC50 in experiment [1], in experiment [2] and in experiment [3] (setting [4]) were 0.018 µM, 0.007 µM and 2 nM, respectively.

As to `C[C@@H](C(=O)N1CC(O)C1)c1cnc(NC[C@H]2CC[C@H](Nc3ccc4ccnc(Cl)c4n3)CC2)nc1` [Compound C71, (R)-2-(2-((((1,4-trans)-4-((8-chloro-1,7-naphthyridin-2-yl)amino)cyclohexyl)methyl)amino)pyrimidin-5-yl)-1-(3-hydroxyazetidin-1-yl)propan-1-one], the IC50 in experiment [3] (setting [4]) worked out at 2 nM.

In the case of `O=C(Cc1cnc(NC[C@H]2CC[C@H](Nc3ccc4ccnc(Cl)c4n3)CC2)nc1)N1CCNCC1` [Compound C41, 2-(2-((((1,4-trans)-4-((8-chloro-1,7-naphthyridin-2-yl)amino)cyclohexyl)methyl)amino)pyrimidin-5-yl)-1-(piperazin-1-yl)ethan-1-one], the values for the IC50 in experiment [1] and in experiment [2] were 0.035 µM and 0.031 µM, respectively.

On to `COc1nccc2ccc(N[C@H]3CC[C@H](CNc4ncc(C(N)=O)cn4)CC3)nc12` [Compound C5, 2-((((1,4-trans)-4-((8-methoxy-1,7-naphthyridin-2-yl)amino)cyclohexyl)methyl)amino)pyrimidine-5-carboxamide], for which the values for the half-inhibitory concentration (IC50) in experiment [1] and in experiment [2] were 0.063 µM and 0.062 µM, respectively.

For the compound `Clc1nccc2ccc(N[C@H]3CC[C@H](CNc4ncc(CCNC5COC5)cn4)CC3)nc12` [Compound C48, 8-chloro-N-((1,4-trans)-4-(((5-(2-(oxetan-3-ylamino)ethyl)pyrimidin-2-yl)amino)methyl)cyclohexyl)-1,7-naphthyridin-2-amine], the IC50 stood at 0.039 µM in experiment [1] and 0.027 µM in experiment [2].

Take `COc1nccc2ccc(N[C@H]3CC[C@H](CNc4ncc(NC(=O)CO)cn4)CC3)nc12` [Compound C7, 2-hydroxy-N-(2-((((1,4-trans)-4-((8-methoxy-1,7-naphthyridin-2-yl)amino)cyclohexyl)methyl)amino)pyrimidin-5-yl)acetamide]: the IC50 in experiment [1] amounted to 0.111 µM; in experiment [2], 0.131 µM.

On to `O=C1OCCN1c1cnc(NC[C@H]2CC[C@H](Nc3ccc4ccnc(Cl)c4n3)CC2)nc1` [Compound C64, 3-(2-((((1,4-trans)-4-((8-chloro-1,7-naphthyridin-2-yl)amino)cyclohexyl)methyl)amino)pyrimidin-5-yl)oxazolidin-2-one], for which the IC50 is 0.053 µM in experiment [1] and 0.054 µM in experiment [2].

As for `COC1CC(NCc2cnc(NC[C@H]3CC[C@H](Nc4ccc5ccnc(Cl)c5n4)CC3)nc2)C1` (stereo partly drawn) [Compound C32, 8-chloro-N-((1,4-trans)-4-(((5-(((3-methoxycyclobutyl)amino)methyl)pyrimidin-2-yl)amino)methyl)cyclohexyl)-1,7-naphthyridin-2-amine], the IC50 in experiment [1] was found to be 0.079 µM; in experiment [2], 0.498 µM.

Take `CN1CCN(C(=O)Cc2cnc(NC[C@H]3CC[C@H](Nc4ccc5ccnc(Cl)c5n4)CC3)nc2)CC1` [Compound C43, 2-(2-((((1,4-trans)-4-((8-chloro-1,7-naphthyridin-2-yl)amino)cyclohexyl)methyl)amino)pyrimidin-5-yl)-1-(4-methylpiperazin-1-yl)ethan-1-one]: the half-inhibitory concentration (IC50) in experiment [1] is 0.057 µM; in experiment [2], 0.067 µM.

In the case of `O=C(Nc1cnc(NC[C@H]2CC[C@H](Nc3ccc4ccnc(Cl)c4n3)CC2)nc1)OCC1COC1` [Compound C18, Oxetan-3-ylmethyl (2-((((1,4-trans)-4-((8-chloro-1,7-naphthyridin-2-yl)amino)cyclohexyl)methyl)amino)pyrimidin-5-yl)carbamate], the IC50 in experiment [1] stood at 0.028 µM; in experiment [2] it was 0.039 µM.
